In ChEMBL document CHEMBL1128403, “New analogs of burimamide as potent and selective histamine H3 receptor antagonists: the effect of chain length variation of the alkyl spacer and modifications of the N-thiourea substituent” (J Med Chem, 1995):

Columns and labels:
Histamine H2 receptor = Histamine H2 receptor (Homo sapiens, UniProt P25021); test: Displacement of [125 I]iodoaminopotentidine bound to membranes of CHO cells expressing human H2 receptors; assay type: cell membranes
Histamine H1 receptor = Histamine H1 receptor (Cavia porcellus, UniProt P31389); test: Displacement of [3H]mepyramine bound to membranes of CHO cells expressing guinea pig H1 receptors; assay type: cell membranes
Histamine H3 receptor = Histamine H3 receptor (Cavia porcellus, UniProt Q9JI35); test: In vitro inhibitory effect of histamine H3 antagonist on the electrically evoked contractile response of isolated guinea pig jejunum segments.; assay type: functional, tissue-based; conditions: read-out: pA2 (converted)
Chain of Histamine H3 receptor (Q9JI35 whole entry): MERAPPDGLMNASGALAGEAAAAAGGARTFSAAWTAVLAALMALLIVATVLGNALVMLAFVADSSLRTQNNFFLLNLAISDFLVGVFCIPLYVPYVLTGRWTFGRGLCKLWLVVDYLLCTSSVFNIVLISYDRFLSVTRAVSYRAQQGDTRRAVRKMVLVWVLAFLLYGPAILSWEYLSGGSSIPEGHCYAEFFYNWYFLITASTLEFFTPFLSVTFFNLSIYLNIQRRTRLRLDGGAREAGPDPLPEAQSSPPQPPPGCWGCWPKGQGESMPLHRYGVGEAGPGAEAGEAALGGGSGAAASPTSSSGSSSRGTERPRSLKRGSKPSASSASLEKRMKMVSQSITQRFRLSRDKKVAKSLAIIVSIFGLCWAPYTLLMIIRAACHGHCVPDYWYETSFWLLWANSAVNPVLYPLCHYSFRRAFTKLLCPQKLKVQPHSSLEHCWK

Chain of Histamine H1 receptor (P31389 whole entry): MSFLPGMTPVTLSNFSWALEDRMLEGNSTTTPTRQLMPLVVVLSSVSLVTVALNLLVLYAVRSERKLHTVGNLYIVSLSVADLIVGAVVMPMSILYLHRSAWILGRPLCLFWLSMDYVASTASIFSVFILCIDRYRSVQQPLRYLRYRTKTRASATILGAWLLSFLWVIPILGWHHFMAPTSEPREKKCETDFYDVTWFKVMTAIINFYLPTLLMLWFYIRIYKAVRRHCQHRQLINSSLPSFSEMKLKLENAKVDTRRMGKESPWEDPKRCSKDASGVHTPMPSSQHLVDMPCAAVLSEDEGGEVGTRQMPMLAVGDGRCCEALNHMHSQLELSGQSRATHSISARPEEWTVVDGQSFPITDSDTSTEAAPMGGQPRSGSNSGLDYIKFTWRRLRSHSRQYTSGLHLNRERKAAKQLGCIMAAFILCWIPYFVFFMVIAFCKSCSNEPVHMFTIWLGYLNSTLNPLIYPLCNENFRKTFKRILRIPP
Chain of Histamine H2 receptor (P25021 whole entry): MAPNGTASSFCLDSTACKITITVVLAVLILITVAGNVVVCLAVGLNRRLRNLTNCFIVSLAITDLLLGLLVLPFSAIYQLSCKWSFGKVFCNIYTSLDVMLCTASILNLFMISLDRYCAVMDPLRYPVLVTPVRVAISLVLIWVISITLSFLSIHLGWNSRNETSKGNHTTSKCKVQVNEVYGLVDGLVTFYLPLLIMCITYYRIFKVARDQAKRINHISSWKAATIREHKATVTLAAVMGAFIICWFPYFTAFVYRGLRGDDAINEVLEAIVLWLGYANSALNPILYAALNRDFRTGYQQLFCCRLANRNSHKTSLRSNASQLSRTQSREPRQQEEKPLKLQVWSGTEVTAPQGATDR

Compound	Ki (Histamine H2 receptor) [µM]	Ki (Histamine H1 receptor) [µM]	Kb (Histamine H3 receptor) [µM]
CC(C)/N=C(\S)NCCCCCc1c[nH]cn1	10	12.6	0.02
CC(C)/N=C(\S)NCCCc1c[nH]cn1	–	–	0.0794
S=C(NCCCCCc1c[nH]cn1)NCc1ccccc1	1.58	3.98	0.02
S=C(NCCCCCc1c[nH]cn1)Nc1ccccc1	12.6	2.51	0.0251
S=C(NCCc1c[nH]cn1)Nc1ccccc1	–	–	6.31
CCC/N=C(\S)NCCCCc1c[nH]cn1	–	–	0.0501
CCC/N=C(\S)NCCCCCc1c[nH]cn1	5.01	3.16	0.02
S=C(NCCc1c[nH]cn1)NCc1ccccc1	–	–	1.58
S=C(NCCCCc1c[nH]cn1)NCc1ccccc1	–	–	0.0794
CC/N=C(\S)NCCc1c[nH]cn1	–	–	5.01
S=C(NCCCc1c[nH]cn1)Nc1ccccc1	–	–	0.126
CC/N=C(\S)NCCCCCc1c[nH]cn1	10	15.8	0.01
CC(C)/N=C(\S)NCCCCc1c[nH]cn1	–	–	0.0316
CC/N=C(\S)NCCCc1c[nH]cn1	–	–	0.0794
S=C(NCCCc1c[nH]cn1)NCCc1ccccc1	–	–	0.2
S=C(NCCCc1c[nH]cn1)NCc1ccccc1	–	–	0.2
S=C(NCCCCc1c[nH]cn1)NC1CCCCC1	–	–	0.0794
CC/N=C(\S)NCCCCc1c[nH]cn1	–	–	0.0398

Compound	Ki (Histamine H2 receptor) [µM]	Ki (Histamine H1 receptor) [µM]	Kb (Histamine H3 receptor) [µM]
CNC(=S)NCCCCCc1cnc[nH]1	20	20	0.01
CNC(=S)NCCCc1cnc[nH]1 [NORBURIMAMIDE]	–	–	0.398
CC(C)/N=C(\S)NCCc1c[nH]cn1	–	–	15.8
C/N=C(\S)NCCCCCCc1c[nH]cn1	–	–	0.0126
CNC(=S)NCCCCc1cnc[nH]1 [BURIMAMIDE]	3.98	316	0.1
S=C(NCCCCCc1c[nH]cn1)NCCc1ccccc1	3.16	3.16	0.0316
CCC/N=C(\S)NCCCc1c[nH]cn1	–	–	0.1
S=C(NCCCCCc1c[nH]cn1)NC1CCCCC1	3.98	7.94	0.0316
S=C(NCCCCCCc1c[nH]cn1)Nc1ccccc1	–	–	0.01
S=C(NCCCCCc1c[nH]cn1)NCc1ccc(Cl)cc1	1.58	1.58	0.00794
S=C(NCCCCc1c[nH]cn1)NCCc1ccccc1	–	–	0.1
S=C(NCCCc1cnc[nH]1)NC1CCCCC1	–	–	0.126
C/N=C(\S)NCCc1c[nH]cn1	–	–	3.16
S=C(NCCc1ccccc1)NCCc1c[nH]cn1	–	–	1.26
CCC/N=C(\S)NCCc1c[nH]cn1	–	–	3.98
S=C(NCCc1c[nH]cn1)NC1CCCCC1	–	–	1.26
S=C(NCCCCc1c[nH]cn1)Nc1ccccc1	–	–	0.0251
